Holding throughout (test): ITC
For orientation: Isothermal titration calorimetry measures the heat released or taken up as one component is titrated into another.

The test system of assay [1] is aptananozyme XIII: 5'-amino-(TGTA)2-TBA (9) on Cu2+ C-dots (DNA, aptamer) TGTATGTATGTGGTGTGTGAGTGCGGTGCCC
Conditions: 100 mM NaCl, 5 mM MgCl2, 50 mM phosphate, pH 7.2, Figure S16 legend: 50 mM NaCl, 10 mM MgCl2.

The test system of assay [2] is aptananozyme XIV: 5'-amino-(TGTA)3-TBA (10) on Cu2+ C-dots (DNA, aptamer) TGTATGTATGTATGTGGTGTGTGAGTGCGGTGCCC
As to conditions: 100 mM NaCl, 5 mM MgCl2, 50 mM phosphate, pH 7.2, Figure S16 legend: 50 mM NaCl, 10 mM MgCl2.

Assay [3] concerns aptananozyme XI: 3'-amino-TBA (7) on Cu2+ C-dots (DNA, aptamer) TGTGGTGTGTGAGTGCGGTGCCC
As to conditions: 100 mM NaCl, 5 mM MgCl2, 50 mM phosphate, pH 7.2, Figure S16 legend: 50 mM NaCl, 10 mM MgCl2.

Assay [4] deals with aptananozyme XII: 5'-amino-(TGTA)-TBA (8) on Cu2+ C-dots (DNA, aptamer) TGTATGTGGTGTGTGAGTGCGGTGCCC
Conditions: 100 mM NaCl, 5 mM MgCl2, 50 mM phosphate, pH 7.2, Figure S16 legend: 50 mM NaCl, 10 mM MgCl2.

The subject of assay [5] is aptananozyme X: 5'-amino-TBA (6) on Cu2+ C-dots (DNA, aptamer) TGTGGTGTGTGAGTGCGGTGCCC
Conditions: 100 mM NaCl, 5 mM MgCl2, 50 mM phosphate, pH 7.2, Figure S16 legend: 50 mM NaCl, 10 mM MgCl2.

The test system of assay [6] is aptananozyme IV: 5'-amino-(TGTA)2-DBA (4) on Cu2+ C-dots (DNA, aptamer) TGTATGTACGACGCCAGTTTGAAGGTTCGTTCGCAGGTGTGGAGTGACGTCG
Conditions: 100 mM NaCl, 5 mM MgCl2, 5 mM MES, pH 5.5.

Assay [7] concerns aptananozyme III: 5'-amino-(TGTA)-DBA (3) on Cu2+ C-dots (DNA, aptamer) TGTACGACGCCAGTTTGAAGGTTCGTTCGCAGGTGTGGAGTGACGTCG
Conditions: 100 mM NaCl, 5 mM MgCl2, 5 mM MES, pH 5.5.

For assay [8], the system named is aptananozyme II: 3'-amino-DBA (2) on Cu2+ C-dots (DNA, aptamer) CGACGCCAGTTTGAAGGTTCGTTCGCAGGTGTGGAGTGACGTCG
Conditions: 100 mM NaCl, 5 mM MgCl2, 5 mM MES, pH 5.5.

For assay [9], the system named is aptananozyme I: 5'-amino-DBA (1) on Cu2+ C-dots (DNA, aptamer) CGACGCCAGTTTGAAGGTTCGTTCGCAGGTGTGGAGTGACGTCG
As to conditions: 100 mM NaCl, 5 mM MgCl2, 5 mM MES, pH 5.5; for Kd: printed as 'the aptamer', methods: aptananozyme.

The test system of assay [10] is aptananozyme V: 5'-amino-(TGTA)3-DBA (5) on Cu2+ C-dots (DNA, aptamer) TGTATGTATGTACGACGCCAGTTTGAAGGTTCGTTCGCAGGTGTGGAGTGACGTCG
As to conditions: 100 mM NaCl, 5 mM MgCl2, 5 mM MES, pH 5.5.

Take `NC(=O)[C@@H](N)Cc1ccc(O)cc1`: the binding result in assay [1] and in [4] was “yes” each time. For the same compound, the results for the Kd in assay [2], in assay [3] and in [5] were 1400 ± 100 nM, 1240 ± 50 nM and 830 ± 10 nM, respectively.
For the compound `NCCc1ccc(O)c(O)c1`, the binding result in assay [6], in assay [7], in assay [8] and in [9] (aptamer on Cu2+ C-dots) was “yes” throughout. For the same compound, the Kd – broadly, the equilibrium constant for the complex coming apart – in assay [10] stood at 3900 ± 200 nM.
Turning to `N[C@@H](Cc1ccc(O)c(O)c1)C(=O)O`, in assay [9], the Kd was 1700 ± 400 nM.
The same measure, in the same setting: as for `N[C@H](Cc1ccc(O)c(O)c1)C(=O)O`, the figure is 6600 ± 1000 nM.

The record behind these values is publication PMC8856595 (2021).
